Source: patent US20150065709A1, “Aminoquinazoline Derivative And Use Thereof In Preparing Anti-Malignant Tumor Medicament” (METABOMICS, INC, priority 2012, published 2015)

Assays:
[1] = system: A549 (non-small cell lung cancer); test: Transplanted tumor in nude mice, A549 model; type: in vivo, nude mice (BALB/c)
Description: Furthermore, more pharmacological models of tumor cell lines in nude mice were utilized to validate the inhibitory effects of compound Ie. The test method was specifically described as follows: H1975, A549, HCC827, A431, N87, MDA-MD-468 and CAL27 tumor cells respectively were inoculated into nude mice (BALB/c, male, 5-6 weeks of age), and when the mean tumor volume reaches 150 mm^3 mice was randomized into groups. The H1975 tumor model in nude mice includes one positive control group and three dosage groups of compound Ie (6.7 mg/kg/day, 13.4 mg/kg/day, and 20.1 mg/kg/day. The A549 tumor model in nude mice includes one positive control group, two dosage groups of compound Ie (10 mg/kg/day, 20 mg/kg/day), and one dosage group of Docetaxel (12 mg/kg/day). The HCC827 tumor model in nude mice includes one positive control group, two dosage groups of compound Ie (0.5 mg/kg/day, 2.5 mg/kg/day), and one dosage group of Erlotinib (12.5 mg/kg/day). The A431 tumor model in nude mice includes one positive control group, two dosage groups of compound Ie (2.5 mg/kg/day, 5 mg/kg/day), and one dosage group of Erlotinib (50 mg/kg/day). […] The tumor size and body weight of nude mice were recorded twice weekly from the first day of administration. The tumor volume was calculated using formula (1×w^2), wherein 1 and w respectively represents the maximum and minimum size in each measurement. […]

[2] = Long-term toxicity experiment (28 days) in dogs; type: in vivo
Description: Experiment Animals: rats, male, 6-8 weeks of age, body weight: 180-250 g; dogs, male, about 24 months, body weight: 7-10 kg.
Preparation of sample: in rat's experiments the mixed formulation powder of the compound Ie was formulated into 0.1, 0.3 and 1 mg/mL homogeneous suspension for use; administration route: oral administration; […]. In dog's experiments the tablets of compound Ie were fed to dogs. […].
Sample collection: blood was collected at the time points of 1, 10, 20 and 28 days respectively, about 120-200 μL whole blood was collected from 3 animals at each time point. Blood was collected at 1 h, 4 h, 8 h and 24 h after administration.
Sample analysis: the collected samples were detected by LC-MS/MS, and the instrument model was SHIMADZU20 A-API4000.
Pharmacokinetic data analysis: the obtained plasma concentration data were fitted and calculated using WinNolin according to non-compartment model.

[3] = system: ZR-75-30; test: Inhibition of tumor cells, WST method; type: cell-based; settings: Homo sapiens, Breast
Description: (§1) (1) Compounds: in vitro studies the test compounds was dissolved in 100% DMSO and diluted until the final concentration of DMSO was 0.1%. The 0.1% (v/v) DMSO was added into culture medium as solvent control. 9 concentration gradients were tested and each gradient was repeated twice. (2) Tumor cell lines: the tumor cell lines were cultivated in RPMI10 culture medium containing 10% fetal calf serum in incubator at 37° C. in a 5% CO2 air incubator. The tested tumor cell lines were: BT474, MDA-MB-231, SK-Br-3, A431, H292, H1975, HCC827, A549, H1650 and H1734. (3) MTS method: cells were seeded into 96-well plate to give a density of about 3000 cells per well, and incubated overnight in a humidified incubator at 37° C. In the next day, the test compounds were added to the wells and further incubated for 72 hours. The cell activity was detected using MTS. IC50 was calculated (the concentration of a compound that is required for 50% inhibition of the cell growth versus the DMSO control group, using nonlinear regression analysis of software GraphPad Prism). […] In a 96-well plate, each test compound was tested at 9 dosage concentrations and each dosage was made in triplicate. Samples were added in 100 μL/well. Cell control and negative control wells contained diluents instead of compounds. Except the negative control well, 100 μL cell suspension of complete medium was added into each test well, wherein corresponding cell numbers were included to assure that the cells in cell control well just cover the bottom of the well as the required incubation time was reached. The plate was incubated in a CO2 incubator at 37° C. for 48 hours. The liquid in test wells was removed by pipetting. 100 μL CCK-8 (Cell counting Kit-8, purchased from DOJINDO Molecular Technologies) detection liquid (containing 10% CCK-8, 5% FBS corresponding medium) was added into each test well, then the plate was incubated in a CO2 incubator under at 37° C. for 3 hours. OD value was detected by ELIASA at A450 nm. Cell viability percentage (%)=(O.D. test compound-O.D. blank)/(O.D. control-O.D. blank)×100. Mean value was calculated for each 3 repeated wells, and IC50 was calculated using nonlinear regression (fitted curve) data analysis method.
(§2) Parts of test results of compound Ie listed in the table 3 and all of the test results listed in the table 4 were obtained by WST method.

[4] = system: DU145; test: Inhibition of tumor cells, WST method; type: cell-based; settings: Homo sapiens, DU-145, Prostate
Description: as §1, §2

[5] = system: ACHN; test: Inhibition of tumor cells, WST method; type: cell-based; settings: Homo sapiens, Kidney
Description: as §1, §2

[6] = system: NCI-N87; test: Inhibition of tumor cells, WST method; type: cell-based; settings: Homo sapiens, Stomach
Description: as §1, §2

[7] = system: CAL27; test: Inhibition of tumor cells, WST method; type: cell-based; settings: Homo sapiens, CAL-27, Head and Neck
Description: as §1, §2

[8] = system: MDA-MB-468; test: Inhibition of tumor cells, WST method; type: cell-based; settings: Homo sapiens, Breast
Description: as §1, §2

[9] = system: SK-Br-3; test: Inhibition of tumor cells, WST method; type: cell-based; settings: Homo sapiens, 48 hours
Description: as §1, §2

[10] = system: H292; test: Inhibition of tumor cells, WST method; type: cell-based; settings: Homo sapiens, NCI-H292, 48 hours
Description: as §1, §2

[11] = system: NCI-H2126; test: Inhibition of tumor cells, WST method; type: cell-based; settings: Homo sapiens, Lung
Description: as §1, §2

[12] = system: A431; test: Inhibition of tumor cells, MTS method; type: cell-based; settings: Homo sapiens, A-431, 72 hours
Description: as §1

[13] = system: H1975; test: Inhibition of tumor cells, MTS method; type: cell-based; settings: Homo sapiens, NCI-H1975, 72 hours
Description: as §1

[14] = system: BT474; test: Inhibition of tumor cells, MTS method; type: cell-based; settings: Homo sapiens, BT-474, 72 hours
Description: as §1

CN(C)C/C=C/C(=O)Nc1cc2c(Nc3ccc(F)c(Cl)c3)ncnc2cc1OC(F)F [Compound Ie]
inhibitory and therapeutic effects on A549 tumor model ([1]; 10, 20 mg/kg/day orally for 21 days): strong inhibitory effects and therapeutic effects | inhibitory effects on tumor cell growth compared with other drugs, A549 model ([1]; versus Docetaxel (12 mg/kg/day)): stronger inhibitory effects | toxicity reaction ([2]; dog, in vivo, 1 mg/kg): No toxicity reaction | toxicity reaction ([2]; dogs, 5 mg/kg, 28 days, reaction of Afatinib group greater than compound Ie group): toxicity reactions | IC50 [3]: 0.683 µM | IC50 [4]: 0.853 µM | IC50 [5]: 0.107 µM | IC50 [6]: 0.001 µM | IC50 [7]: 0.002 µM | IC50 [8]: 0.076 µM | IC50 [9]: 0.028 µM | IC50 [10]: 0.181 µM | IC50 [11]: 1.69 µM | IC50 [12]: 0.652 µM | IC50 [13]: 0.8 µM | IC50 [14]: 0.034 µM
